Laboratory results published in patent US8680076B2, “Methods of treatment, improvement and prevention using haloaryl substituted aminopurines” (Signal Pharmaceuticals, LLC, priority 2010, dated 2014).
Entries after “also recorded” stand apart in the source; their conditions may differ.

Assays:
Tsk-1 mice = experiment: Tight skin-1 (Tsk-1) mouse model of systemic sclerosis; format: in vivo; settings: for decrease of number of myofibroblasts / reduction of hypodermal thickening: 6 weeks; for reduction of hypodermal thickening: compared to untreated mice
Experimental: The antifibrotic effects of the JNK inhibitor Compound JNKi-1 were tested in a murine tight skin-1 (Tsk-1) model of systemic sclerosis. In this model, a dominant mutation in the fibrillin 1 gene (Fbn1^Tsk+/−) leads to a systemic sclerosis-like disease with inflammatory infiltrates and massive fibrosis of the skin (Akhmetshina A, Venalis P, Dees C, Busch N, Zwerina J, Schett G, et al., Treatment with imatinib prevents fibrosis in different preclinical models of systemic sclerosis and induces regression of established fibrosis, Arthritis Rheum. 2009; 60(1):219-24).
Male and female TSK-1 mice were used. Mice were fed a standard diet with water ad libitum. The room temperature was kept constant at 22° C. with a humidity of 60%.
Compound JNKi-1 was dissolved in 0.5% carboxymethylcellulose (CMC)/0.25% Tween 80 in water. As vehicle control a solution of 0.5% CMC/0.25% Tween 80 in water was used. Imatinib mesylate was dissolved in 0.9% NaCl at a concentration of 50 mg/kg/day in a total volume of 100 μL.
Groups of Tsk-1 mice (n=4/sex/group) were assigned to one of five treatment groups: • Untreated wildtype (Fbn1^Tsk−/−) group received 0.5% CMC/0.25% Tween 80 in water orally (PO) twice daily (BID). • Untreated Fbn1Tsk+/− mice received 0.5% CMC/0.25% Tween 80 in water orally BID. • Compound JNKi-1-treated Fbn1^Tsk+/− received 50 mg/kg orally BID. • Compound JNKi-1-treated Fbn1^Tsk+/− received 150 mg/kg orally BID. • Imatinib mesylate-treated Fbn1^Tsk+/− group received 50 mg/kg/day administered intraperitoneally (IP).
Treatments with Compound JNKi-1 and control compound were started at Week 4. After 6 weeks of treatment, mice were sacrificed, and the antifibrotic effects from each treatment were analyzed.
Antifibrotic effects were determined by measuring the dermal thickness and quantifying the numbers of myofibroblasts in the lesional skin. Dermal thickness was determined by measuring the distance from the epidermal/dermal border to the dermal/subdermal border in H & E-stained sections at four different sites. The number of myofibroblasts was quantified by staining for alpha smooth muscle actin (α-SMA) in paraffin-embedded sections. Data are expressed as mean±standard error of the mean (SEM). SPSS17.0 software and the Mann-Whitney-U-test were used for statistical analyses. A p-value of less than 0.05 was considered statistically significant.

[1] = system: phospho-c-Jun (JNK) in EpiDermFT reconstituted human skin equivalent; experiment: UVB-stimulated JNK activation in EpiDermFT skin model (Western blot); format: cell-based
Experimental: Two in vitro systems, nHEK and the EpiDermFT™ skin model, were used in this study. The nHEK cells and EpiDermFT™ samples were pretreated with JNKi-1 at concentrations of 0.1, 3, and 10 μM prior to 60 mJ/cm^2 and 135 mJ/cm^2 UVB irradiation, respectively. After UV stimulation, the activities of JNK were measured as levels of phospho-c-Jun via immunoblotting of cell lysates using an anti-phospho-c-Jun S63 antibody. Phospho-Stat3 was also evaluated as a marker of JNK activation.
Samples were cultured in 2 mL of serum-free maintenance media (EFT-200-MM) for 72 hr. After 72 hr, the media was replaced with 2 mL of fresh media containing 0, 0.1, 3, and 10 μM of JNKi-1, respectively). Samples were allowed to soak at 37° C., 5% CO2 for 6 hr, then removed from the media and placed into 2 mL of PBS and irradiated with 135 mJ/cm^2 of UVB. Controls were sham irradiated. Samples were placed back into 2 mL of media containing JNKi-1. Samples were harvested at 30 minutes and 3 hr post UV treatment. Each sample was cut in half; one half was snap frozen in liquid nitrogen, homogenized in lysis buffer, and lysates stored at −80° C. The other half was placed in 10% neutral buffer formalin for 3 hr and transferred to 100% ethanol for processing
cells were pre-incubated with either dimethyl sulfoxide (DMSO) (FIG. 31, lanes 1, 2, and 12 to 15) or JNKi-1 at the indicated concentration (lanes 3 to 11) for 1 hr and then irradiated without (Control, lanes 1 and 2) or with UVB at 60 mJ/cm^2 (lanes 3 to 15). Cells were lysed 30 minutes after UV irradiation and cell lysates were subjected to sodium dodecyl sulfate polyacrylamide gel electrophoresis (SDS-PAGE) before Western blotting with anti-phospho-c-Jun antibody. […]
Western analysis: For Western blot analysis, 20 to 25 μg of total protein were applied to SDS-PAGE gels followed by electrophoresis and blotting. […] The intensity of each band was quantified by the Odyssey 2.1 software and exported into Excel for further analysis. […]

O[C@H]1CC[C@H](Nc2ncc3nc(Nc4c(F)cc(F)cc4F)n([C@H]4CCOC4)c3n2)CC1 [JNKi-1, 4-((9-((3S)-tetrahydro-3-furanyl)-8-((2,4,6-trifluorophenyl)amino)-9H-purin-2-yl)amino)-trans-cyclohexanol]
decrease of number of myofibroblasts (Tsk-1 mice; 50 mg/kg orally BID): 68%±28%
reduction of hypodermal thickening (Tsk-1 mice; 50 mg/kg orally BID): 67%±5%
decrease of number of myofibroblasts (Tsk-1 mice; 150 mg/kg orally BID): 99%±9%
reduction of hypodermal thickening (Tsk-1 mice; 150 mg/kg orally BID): 85%±7%
hypodermal thickening / myofibroblast counts (in words) (Tsk-1 mice; 50 and 150 mg/kg orally BID): dose dependently reduced; also recorded: more pronounced; also recorded: dose-dependently reduce
UVB-induced JNK activation (phospho-c-Jun level), in words ([1]; EpiDermFT, 0.1, 3, 10 μM): strongly Inhibits; also recorded: significantly blocks
inhibition of phospho-Stat3 ([1]; EpiDermFT, 30 minutes post UV, data not shown): minimal
IC50 ([1]; Homo sapiens, light or radiation study, 0.5 h, EpiDermFT, UVB 135 mJ/cm^2, lysed 30 minutes after UV, read-out: IC50 for p-cJun): 100 to 3000 nM
